This is an account of results in patent publication US4604236A, “Calcitonin analogs” (priority 1985, dated 1986).

Assay [1] concerns serum calcium concentration. Briefly: Biological assay of calcitonin analogs in vivo: reduction of serum calcium concentration versus salmon calcitonin standard, 2×2 parallel line assay. Also noted: species or system Rats. As to conditions: standard used in the assay, independently determined. The procedure: The biological potency of des-13-serine-salmon calcitonin was determined by comparing the reduction of serum calcium concentration which followed administration by graded doses of des-Ser^13 -SCT and synthetic salmon calcitonin standard. Rats were divided into four groups of seven animals, and each group was assigned at random to a dose of standard or test solution. Low and high doses were chosen from the linear portion of the dose-response curve. For the salmon calcitonin standard, the values were 0.7 and 2.1 ng. peptide/100 g. body weight (BW). This dose approximates 3 and 9 MU/100 g. BW. Peptides were given by subcutaneous injection (0.2 ml/100 g. BW) and blood was withdrawn 1 hour later for serum calcium determination. Sera are processed and analyzed within two hours of collection. […]. Results were analyzed by a 2×2 parallel line assay [Gaddum, J. H., J. Pharm. Pharmacol., 6, 345 (1953)]. The standard salmon calcitonin used was independently determined to contain greater than 4,000 IU/mg. des-Ser^13 -SCT assayed at 4650 IU/mg.

For assay [2] the following is noted: literature values; cited from earlier work.

Regarding `CC(C)C[C@H](NC(=O)[C@H](CCCCN)NC(=O)CNC(=O)[C@H](CC(C)C)NC(=O)[C@@H](NC(=O)[C@@H]1CSSC[C@H](N)C(=O)N[C@@H](CO)C(=O)N[C@@H](CC(N)=O)C(=O)N[C@@H](CC(C)C)C(=O)N[C@@H](CO)C(=O)N[C@@H]([C@@H](C)O)C(=O)N1)C(C)C)C(=O)N[C@@H](CO)C(=O)N[C@@H](CCC(N)=O)C(=O)N[C@@H](CCC(=O)O)C(=O)N[C@@H](CC(C)C)C(=O)N[C@@H](Cc1c[nH]cn1)C(=O)N[C@@H](CCCCN)C(=O)N[C@@H](CC(C)C)C(=O)N[C@@H](CCC(N)=O)C(=O)N[C@H](C(=O)N[C@@H](Cc1ccc(O)cc1)C(=O)N1CCC[C@H]1C(=O)N[C@@H](CCCNC(=N)N)C(=O)N[C@H](C(=O)N[C@@H](CC(N)=O)C(=O)N[C@H](C(=O)NCC(=O)N[C@@H](CO)C(=O)NCC(=O)N[C@H](C(=O)N1CCC[C@H]1C(N)=O)[C@@H](C)O)[C@@H](C)O)[C@@H](C)O)[C@@H](C)O` [standard salmon calcitonin, salmon calcitonin], the “potency content of the standard salmon calcitonin” value in assay [1] is reported as “greater than 4,000 IU/mg”. As to “(1,7-α-L-aminosuberic acid)eel calcitonin”, in assay [2], the hypocalcemic potency result was “about 3400 IU/mg”. In the case of “eel calcitonin [synthetic eel calcitonin]”, the hypocalcemic potency result in assay [2] was “around 4300 IU/mg”.
